According to patent US12403169B2, “Compositions and methods related to Rhamnus prinoides (gesho) extract for the inhibition of polymicrobial biofilm formation” (GEORGIA STATE UNIVERSITY RESEARCH FOUNDATION, INC., priority 2018, dated 2025):
pIC50: −log10 of the molar value. Blank lines part the entries; values can stand above or below the compound they belong to.

Experiments:
[1] = system: Staphylococcus aureus biofilm formation; experiment: microbe, parasite or virus in culture; settings: for pIC50 / CC50: Staphylococcus aureus; for pIC50: 24 h, read-out: BP50; for CC50: read-out: category based on BP50 and LC50; for effect on biofilm formation: evaluated at 0.8% and 3%; for anti-biofilm activity (words): pure compounds
Description: Staphylococcus aureus and Streptococcus mutans biofilms were grown in Luria-Bertani (LB) broth and brain-heart infusion (BHI) medium containing 0.5% sucrose, respectively. Biofilm formation was assessed using a polystyrene 96 well microtiter plate crystal violet assay. Overnight broth cultures were diluted to an initial optical density (OD600) of 0.01 in fresh media and combined with gesho extract to obtain a final concentration of 7 mg/ml. Treatments were then serially diluted to final extract concentrations of 5, 3, 1, 0.5 and 0.25 mg/ml. Negative controls consisted of cells diluted to an initial optical density (OD600) of 0.01 in growth media without plant extract. 100 μl of treated and untreated samples were added to each well of a microtiter plate and incubated at 37° C. for 24 hours. After 24 hours, planktonic cells and spent growth media were removed from each well and the plate was washed three times in sterile water. Biofilms were then stained with 150 μl of 0.1% crystal violet for 15 minutes at 200 rpm. Excess dye was removed via washing in sterile water and the plate was allowed to air dry.
Staphylococcus aureus and Pseudomonas aeruginosa biofilms were grown in LB broth and PBM-glucose, respectively. Biofilm formation was assessed using a polystyrene 96 well microtiter plate crystal violet assay. […] DMSO was added to solubilize the treatments. Negative controls consisted of cells diluted to an initial OD600 of 0.01 in growth media without treatment. 100 μl of treated and untreated samples were added to each well of a microtiter plate and incubated at 37° C. for 24 h. After 24 h, planktonic cells and spent growth media were removed from each well and the plate was washed 3 times in sterile water. Biofilms were then stained with 150 μl of 0.1% crystal violet for 15 min at 200 rpm. Excess dye was removed via washing in sterile water and the plate was allowed to air dry.
Biofilm formation was assessed using a polystyrene 96 well microtiter plate crystal violet assay.^23 Overnight broth cultures were diluted to an initial OD600 of 0.01 in fresh LB and combined with a target compound to obtain a final concentration of 7 mg/ml. Treatments were then serially diluted to final extract concentrations of 5, 3, 1, 0.5 and 0.25 mg/ml. No vehicles were added to solubilize the treatments. Untreated cells served as negative controls. 100 μl of treated and untreated samples were added to each well of a microtiter plate and incubated at 37° C. for 24 h. After 24 h, planktonic cells and spent growth media were removed from each well and the plate was washed 3 times in sterile water. Biofilms were then stained with 150 μl of 0.1% crystal violet for 15 min at 200 rpm. Excess dye was removed via washing in sterile water and the plate was allowed to air dry. […] The molarity of each treatment was calculated using excel.

[2] = system: Staphylococcus aureus growth; experiment: Staphylococcus aureus growth curve; format: cell-based, Staphylococcus aureus ATCC 6538
Description: 2 mL of each treatment was added to 19 culture tubes and the samples were incubated for 24 h at 37° C. with shaking at 200 rpm. 1 mL of each sample was transferred to a cuvette and the absorbance measurements at 600 nm were taken every hour for 9 hours. 24 h measurements were taken the following day. Untreated samples and samples containing 1.6 μg/mL vancomycin served as a negative and positive controls, respectively. Growth rates were calculated using the slope of the log phase of growth (t=0 h and t=4 h).

[3] = system: Staphylococcus aureus biofilms; experiment: Staphylococcus aureus biofilm killing assay (resazurin); format: cell-based, Staphylococcus aureus ATCC 6538; settings: combination with vancomycin at its MBEC
Description: Staphylococcus aureus biofilms were formed as described above. Staphylococcus aureus biofilms were grown in LB broth. […] […]. Negative controls consisted of 100 μL of fresh LB without compound or antibiotic. […] 100 μL of 10 μg/mL resazurin in LB was added to each biofilm and the plate was statically incubated at 37° C. for 3 hrs. During incubation, fluorescence intensity was measured at λex=570 nm λem=590 nm every 6 minutes using an Enspire fluorescence plate reader. Data was normalized to the emission at t=0 and the rates of resazurin conversion to resorufin was calculated to identify the time at which maximum fluorescence was achieved.

[4] = system: Staphylococcus aureus hydrophobicity; experiment: Hydrophobicity test (microbial adherence to hydrocarbon); format: cell-based; settings: 0.2 or 0.4 mg/mL, 24 h
Description: Hydrophobicity analysis was conducted according to Ciccio, et al., 2015 with a few modifications. Three milliliters of Staphylococcus aureus cultures were grown in the presence of 4-ethoxybenzoic acid (0.2 or 0.4 mg/mL) or methyl gallate (0.2 or 0.4 mg/mL) for 24 h at 37° C. with shaking at 200 rpm. Cultures were diluted to an OD600 of 0.6 and washed with 1 mL PBS. 5 mL of the inoculum was produced, 1 mL was removed for plating on growth agar and 1 mL of hexadecane was applied to the air-liquid interface or the remaining 4 mL. Hexadecane samples were vortexed for 1 min and the phases allowed to separate for 15 minutes at room temperature. 1 mL of the aqueous layer was removed and plated on growth agar. Agar plates were incubated at 37° C. overnight and plate counts were conducted the following day. Results were interpreted as the percent of cells present in the aqueous layer prior to (A0) and after (A1) the addition of hexadecane [(A0−A1)/A0]*100.

biofilm = experiment: Screen of other compounds for anti-biofilm effect; format: cell-based
[5] = system: Staphylococcus aureus log-phase planktonic cells; experiment: Log-phase cell antimicrobial assay; format: cell-based, Staphylococcus aureus ATCC 6538; settings: pure compounds, with or without 1% DMSO
Description: Bacteria were inoculated in 20 ml of growth media at an initial optical density (OD600) of 0.01 and incubated at 37° C., 200 rpm until log-phase was reached. One milliliter of log-phase cells was transferred to 1.5 ml microfuge tubes and growth media removed via centrifugation. Pelleted cells were washed twice with phosphate buffered saline (PBS) before resuspending the pellets in 1 ml of extract dissolved in PBS. Treatments were incubated at 37° C. for 1 hour then serially diluted in PBS and radially plated on growth agar.
Bacteria were inoculated in 20 ml of growth media at an initial optical density (OD600) of 0.01 and incubated for 4±1 h at 37° C. with shaking at 200 rpm until log phase (OD600≈0.35) was reached. 1 ml of log-phase cells was transferred to 1.5 ml microfuge tubes and the growth medium was removed via centrifugation. Pelleted cells were washed twice with phosphate buffered saline (PBS) before resuspending the pellets in 1 ml of 4-ethoxybenzoic acid or methyl gallate with or without vancomycin dissolved in PBS. Treatments were incubated at 37° C. for 1 h and then serially diluted in PBS and radially plated on growth agar.

[6] = system: Staphylococcus aureus stationary phase planktonic cells; settings: pure compounds, with or without 1% DMSO
Description: To assess the viability of stationary phase planktonic cell, a growth agar based assay was conducted. Spent media containing stationary phase planktonic cells was collected after a biofilm formation assay. Collected cells were serially diluted in PBS and dilutions were radially plated in 10 μl volumes on growth medium. Agar plates were incubated at 37° C. overnight to allow for colony formation. Plate counts were used to assess viability.
To assess the viability of stationary phase planktonic cells, a growth agar-based assay was conducted. Spent media containing stationary phase planktonic cells were collected from microtiter plates after the conclusion of each biofilm formation assay. The collected cells were serially diluted (1:10) in PBS and dilutions were radially plated in 10 μl volumes on growth medium. Agar plates were incubated at 37° C. overnight to allow for colony formation and plate counts were used to assess viability. Colony forming units per milliliter of culture (CFU/mL) was calculated by dividing the colony counts (C) by the volume added (V) multiplied by the dilution factor (D): […]

SMILES: COC(=O)c1cc(O)c(O)c(O)c1 [methyl gallate]
pIC50 [1]: 3.09
CC50 [1]: < 7.5 mM
Percent attenuation ([2]; 1.1 mM): 30%
Growth rate ([2]; 1.1 mM, t=0 to t=4 h): 0.77 log replications/hr
Percent attenuation ([2]; 1.2 mM): 46%
Growth rate ([2]; 1.2 mM, t=0 to t=4 h): 0.59 log replications/hr
synergism with vancomycin in biofilm killing [3]: did not exhibit synergism
hydrophobicity of S. aureus [4]: decreased the hydrophobicity

pIC50 [1]: 2.04
SMILES: O=C(O)c1cc(O)ccc1O [gentisic acid, 2,5-dihydroxybenzoic acid]

SMILES: O=C(O)c1ccccc1 [benzoic acid, reference compound]
effect on biofilm formation [1]: Neither benzoic acid nor 2-pentanone had a statistically significant effect on biofilm formation

pIC50 [1]: 1.41
SMILES: O=C(O)c1ccccc1O [salicylic acid, 2-hydroxybenzoic acid]
CC50 [1]: > 7.5 mM

SMILES: CCCCCCCCC(C)O (stereo not shown) [2-decanol]
anti-biofilm effect (biofilm): anti-biofilm effect

pIC50 [1]: 2.17
SMILES: CCOC(=O)c1cc(O)c(O)c(O)c1 [ethyl gallate]
CC50 [1]: < 15 mM

SMILES: COC(=O)c1ccc(O)cc1 [methyl paraben, 4-hydroxybenzoic acid methyl ester]
Percent attenuation ([2]; 5.2 mM): 25%
Growth rate ([2]; 5.2 mM, t=0 to t=4 h): 0.83 log replications/hr

pIC50 [1]: 2.54
SMILES: CCCOC(=O)c1cc(O)c(O)c(O)c1 [propyl gallate]
CC50 [1]: < 15 mM

SMILES: O=C(O)c1cccc(O)c1 [3-hydroxybenzoic acid]
pIC50 [1]: 2.02
CC50 [1]: < 15 mM

SMILES: CCOC(=O)c1ccc(OCC)cc1 [EEB, ethyl 4-ethoxybenzoate]
antibacterial activity against log phase cells [5]: did not show antibacterial activity
antibacterial activity against stationary phase cells [6]: did not show antibacterial activity
CC50 [1]: > 7.5 mM
effect of DMSO on anti-biofilm activity ([1]; combined with 1% DMSO): presence of DMSO increased the anti-biofilm activity of EEB
anti-biofilm activity (words) [1]: significant anti-biofilm activity
anti-biofilm activity (words) ([1]; listed as ethyl 4-ethoxybenzoate): anti-biofilm activity

SMILES: O=C(O)c1ccc(O)c(O)c1 [protocatechuic acid, 3,4-dihydroxybenzoic acid]
pIC50 [1]: 1.84
CC50 [1]: < 15 mM

SMILES: O=C(O)c1ccc(O)cc1 [p-hydroxybenzoic acid, 4-hydroxybenzoic acid]
pIC50 [1]: 2.10
CC50 [1]: < 15 mM

pIC50 [1]: 2.32
SMILES: O=C(O)c1cccc(O)c1O [pyrocatechuic acid, 2,3-dihydroxybenzoic acid]
CC50 [1]: < 15 mM

SMILES: CN[C@H](CC(C)C)C(=O)N[C@H]1C(=O)N[C@@H](CC(N)=O)C(=O)N[C@H]2C(=O)N[C@H]3C(=O)N[C@H](C(=O)N[C@H](C(=O)O)c4cc(O)cc(O)c4-c4cc3ccc4O)[C@H](O)c3ccc(c(Cl)c3)Oc3cc2cc(c3O[C@@H]2O[C@H](CO)[C@@H](O)[C@H](O)[C@H]2O[C@H]2C[C@](C)(N)[C@H](O)[C@H](C)O2)Oc2ccc(cc2Cl)[C@H]1O [vancomycin, reference compound]
Growth rate ([2]; 1.1 μM, positive control): 0.0 log replications/hr
Percent attenuation ([2]; 1.1 μM, positive control): 100%

SMILES: CCCC(C)=O [2-pentanone, reference compound]
effect on biofilm formation [1]: Neither benzoic acid nor 2-pentanone had a statistically significant effect on biofilm formation

pIC50 [1]: 1.76
SMILES: O=C(O)c1cc(O)c(O)c(O)c1 [gallic acid]
CC50 [1]: > 7.5 mM

SMILES: CCOc1ccc(C(=O)O)cc1 [4-ethoxybenzoic acid]
pIC50 [1]: 2.80
CC50 [1]: < 7.5 mM
Percent attenuation ([2]; 1.2 mM): 12%
Growth rate ([2]; 1.2 mM, t=0 to t=4 h): 0.97 log replications/hr
Percent attenuation ([2]; 2.4 mM): 47%
Growth rate ([2]; 2.4 mM, t=0 to t=4 h): 0.58 log replications/hr
synergism with vancomycin in biofilm killing [3]: synergistic effects
hydrophobicity of S. aureus [4]: decreased the hydrophobicity
